For data set [1], the system named is proliferation of granuloma. As to the kind of experiment: Suppression of proliferation of granuloma, filter paper implant method of Fujimura. Format: in vivo, male Donryu rats. To be noted: once a day for 10 days, rats, dried granuloma weighed after 11 days. The method, then:
While using groups of male Donryu rats in the fifth week after birth (5 rats per group), the activity of present substance No.1 in suppressing the proliferation of granuloma was tested by the method of Fujimura (refer to OYOYAKURI (Pharmacometrics), 19 (3), 329, 1980).
After soaking sheets of filter paper of 13 mm in diameter and 28 mg in weight into an aqueous 2% solution of carboxymethylcellulose containing both dihydroxystreptomycin and penicillin, each of 10⁶ unit at the respective concentration of 0.1 mg/ml, each of the thus treated sheets was buried subcutaneously into the back of each rat under anaesthesia by ether. […] After 11 days of the treatment, granuloma formed in the rat was removed, dried for 24 hours at 70°C and weighed.

In data set [2] the test system is migration of polymorphonuclear leukocytes (PMN) to the site of inflammation. As to the kind of experiment: Suppression of migration of polymorphonuclear leukocytes, carboxymethylcellulose-pouch method. Format: in vivo, male Donryu rats. The following applies: rats, PMN counted 6 hours after injection into pouch. The method, then: While using groups of male Donryu rats (six rats per group) and following the carboxymethylcellulose-pouch method (refer to Ishikawa et al. […] ZASSHI (Journal of the Pharmaceutical Society of Japan), 88, 1472, 1968), the extent of inhibition of migration of polymorphonuclear leukocytes to the site of inflammation by present substance No.1 was examined. The specimen (present substance No.1) was dispersed in an aqueous 0.2 % solution of carboxymethylcellulose and the dispersion was administered to each rat at a predetermined dose rate, and only the aqueous 0.2 % solution of carboxymethylcellulose was administered to each rat of control group. The test was carried out by injecting the aqueous 0.2 % solution of carboxymethyl-cellulose into the pouch formed in the body of the rat and after 6 hours of the injection, the number of polymorphonuclear leukocytes in the exudate into the pouch was counted. […]

Data set [3] can be described thus: Acute mammalian toxicity (oral LD50). The following applies: mouse, in vivo. The protocol:
After dispersing present substance No.1 in an aqueous 0.2 % solution of carboxymethylcellulose, the aqueous dispersion was orally administered to each of male Jcl-ICR mice. As a result, LD₅₀ (acute, oral) of the tested substance was larger than 4,000 mg/kg.

Structures are written as SMILES. Where two headings read alike, the source gives them in different places.

Turning to `O=Cc1ccc(O)c(O)c1` [3,4-dihydroxy-benzaldehyde, 3,4-dihydroxybenzaldehyde, reference compound], in data set [1] (dose rate 50 mg/kg/day oral), the “Granuloma Rate of Suppression (%)” value was determined as 35.6%. Further, the “Rate of suppression of migration of PMN (%)” value (“Rate … of PMN (%)” for short) in data set [2] (dose rate 50 mg/kg) came to 27.5%. Also, the LD50 in data set [3] (oral, male Jcl-ICR mice, dispersed in aqueous 0.2 % carboxymethylcellulose, read-out: LD₅₀ (acute, oral)) stood at 1500 mg/kg.

As for `COc1ccc2c(c1)c(CC(=O)O)c(C)n2C(=O)c1ccc(Cl)cc1` [Indomethacin, reference compound], the “Rate … of PMN (%)” value in data set [2] (dose rate 5 mg/kg) is 35.7%.

`C[C@]12C=CC(=O)C=C1CC[C@@H]1[C@@H]2[C@@H](O)C[C@@]2(C)[C@H]1CC[C@]2(O)C(=O)CO` [Prednisolone, reference compound]: the “Granuloma Rate of Suppression (%)” value in data set [1] (dose rate 3 mg/kg/day oral) was determined as 42.2%. Moreover, the “Rate … of PMN (%)” value in data set [2] (dose rate 5 mg/kg) is on record as 37.5%.

Turning to `CC(=O)Oc1ccc(C(OC(C)=O)OC(C)=O)cc1OC(C)=O` [Present Substance No.1, 3,4-diacetoxybenzylidene diacetate], the “Granuloma Rate of Suppression (%)” value amounted to 42.8% in data set [1] (dose rate 5 mg/kg/day oral), 55.3% in data set [1] (dose rate 10 mg/kg/day oral) and 61.4% in data set [1] (dose rate 50 mg/kg/day oral). Besides, the “Rate … of PMN (%)” value in data set [2] (dose rate 5 mg/kg) amounted to 41.2%; in data set [2] (dose rate 10 mg/kg), 48.0%; in data set [2] (dose rate 50 mg/kg), 51.9%. Also, in data set [3] (male, Jcl-ICR, po), the LD50 was greater than 4000 mg/kg.

The record behind these values is EP0357092B1, “Preparation of diacetoxybenzylidene diacetates” (KUREHA KAGAKU KOGYO KABUSHIKI KAISHA, priority 1983, dated 1985).
